Source: patent publication US7157092B1, “Acyl pseudodipeptides, preparation method and pharmaceutical compositions containing same” (Om Pharma, priority 1998, dated 2007)
Like-named read-outs stand apart in the source and are kept apart here.

How the values were obtained:
[1] = Weight change in rats of the peritoneal carcinoma study; format: in vivo, BDIX rats
UreB 1-569 = assay: Nasal immunization with urease B subunit of Heliobacter pylori: serum anti-UreB immunoglobulins (ELISA); format: in vivo, BALB/c mice; details: 4 times weekly, 25 μg OM-294-DP alone
gp63 antigen [2] = format: in vivo, CBA mice; details: 2 s.c. injections gp63 2 μg with 2×50 μg OM-294-MP or 200 μg BCG
gp63 antigen [3] = format: in vivo, CBA mice
LmCPb antigen [4] = assay: Primary response to single injection of Leishmania mexicana LmCPb antigen: lymph node cell proliferation (3H-TdR take-up); format: in vivo, CBA mice; details: single injection LmCPb 2 μg + 50 μg adjuvant
Experimental: (§1) CBA mice were administered through the tail a single injection of LmCPb in a 2 μg dose either in combination or not with 50 μg of OM-294-MP adjuvant. A control group was administered one injection of physiological saline buffer (non immunized subjects). Eleven days later, cells of the inguinal and periaortic lymph nodes (groups of 3 mice each) were cultured and the proliferative response directed to the purified LmCPb antigen, to a preparation of whole amastigotes of Leishmania mexicana and to concanvalin A (ConA) was evaluated by measuring tritiated thymidine take-up (^3H-TdR). γ IFN and IL-4 cytokine production by lymph node lymphocytes rechallenged in vitro with LmCPb antigen of Leishmania mexicana or by amastigotes was equally determined by ELISA (MIF00 γ IFN & M4000 IL-4 kits, R&D Systems Europe Ltd, Abingdon, UK) using a sample of each culture supernatant of lymph node lymphocytes before addition of ^3H-TdR.
(§2) Values reported in the tables stand for the mean value±standard deviation (triplicate) expressed in cpm for ^3H-TdR take-up and the arithmetic mean±standard deviation (triplicate) expressed in pg per ml for cytokine production in supernatant fluids.
(§3) Antigen: LmCPb stock solution is prepared at a concentration of 40 μg/ml in PBS (2×).
(§4) The negative control consists of a PBS solution without antigen.
(§5) Antigen-adjuvant mixture: Adjuvants are maintained for 10 minutes at 37° C. before vortexing for 3 minutes. Then, the antigen (1 volume) and the adjuvant (1 volume) are mixed and vortexed briefly before being incubated for 20 minutes at 37° C., and finally the whole mixture is vortexed again for 3 minutes.

LmCPb antigen [5] = assay: Primary response to single injection of LmCPb antigen: in vitro cytokine secretion by lymph node lymphocytes (ELISA); format: in vivo, CBA mice; details: single injection LmCPb + adjuvant
Experimental: as §1, §2, §3, §4, §5

monocytes and DC-6 cells = assay: IL-12 p70 production by monocytes and DC-6 cells (ELISA); details: 10 μg/ml, in presence of γ IFN; FIGS. 11, 12
[6] = system: predendritic cells (DC-6); assay: Dendritic cell maturation: FITC-Dextran conjugate incorporation; details: 0.02% g to 25 μg per ml; FIGS. 4, 5
[7] = system: predendritic cells (DC-6); details: DC-9 stage

Question: For `CCCCCCCCCCCC(=O)O[C@H](CCCCCCCCCCC)CC(=O)NC(CCOP(=O)(O)O)C(=O)NCCCC(COP(=O)(O)O)NC(=O)C[C@H](O)CCCCCCCCCCC` (stereo partly drawn) [OM-294-DP, 3-[(R)-3-dodecanoyloxytetradecanoylamino]-4-oxo-5-aza-9-[(R)-3-hydroxytetradecanoylamino]decan-1,10-diol 1, 10-bis(dihydrogenphosphate)], which “Weight of rats (mean ± standard deviation)” value ([1]; Day 0) is on record?
Answer: Its value is 277 ± 19.

Question: What about the “Weight of rats (mean ± standard deviation)” value ([1]; Day 13) of the same molecule?
Answer: The value was 310 ± 21.

Question: What about the “Weight of rats (mean ± standard deviation)” value ([1]; Day 20) of the same molecule?
Answer: The value was 304 ± 23.

Question: What about the “Weight of rats (mean ± standard deviation)” value ([1]; Day 29) of the same molecule?
Answer: Its value is 317 ± 24.

Question: And the “Weight of rats (mean ± standard deviation)” value ([1]; Day 41)?
Answer: Its value is 327 ± 26.

Question: What about the “effect on weight change in comparison to NaCl alone” value ([1]; rat, in vivo) of the same molecule?
Answer: Its value is “no significant effect on weight change”.

Question: What about the “anti-UreB antibodies in serum” value (UreB 1-569) of the same molecule?
Answer: The value was “No anti-UreB antibodies are detected”.

Question: Which results are given for `CCCCCCCCCCCC(=O)O[C@H](CCCCCCCCCCC)CC(=O)NC(CCOP(=O)(O)O)C(=O)NCCCC(CO)NC(=O)C[C@H](O)CCCCCCCCCCC` (stereo partly drawn) [OM-294-MP, 3-[(R)-3-dodecanoyloxytetradecanoylamino]-4-oxo-5-aza-9-[(R)-3-hydroxytetradecanoylamino]-decane-1,10-diol 1-dihydrogenphosphate]?
Answer: murine T lymphocyte proliferation, 3H-TdR take-up (gp63 antigen [2]; gp63 in vitro 0 μg/ml): 2.8 ± 0.7 cpm × 10^−3/ml; murine T lymphocyte proliferation, 3H-TdR take-up (gp63 antigen [2]; gp63 in vitro 0.16 μg/ml): 65 ± 11 cpm × 10^−3/ml; murine T lymphocyte proliferation, 3H-TdR take-up (gp63 antigen [2]; gp63 in vitro 0.31 μg/ml): 92 ± 11 cpm × 10^−3/ml; murine T lymphocyte proliferation, 3H-TdR take-up (gp63 antigen [2]; gp63 in vitro 0.62 μg/ml): 93 ± 13 cpm × 10^−3/ml; murine T lymphocyte proliferation, 3H-TdR take-up (gp63 antigen [2]; gp63 in vitro 1.25 μg/ml): 39 ± 7 cpm × 10^−3/ml; IL-4 concentration (gp63 antigen [3]; gp63 in vitro 0): <8 pg/mL; γ IFN concentration (gp63 antigen [3]; gp63 in vitro 0): <9 pg/mL; IL-4 concentration (gp63 antigen [3]; gp63 in vitro 0.3): 125 pg/mL; γ IFN concentration (gp63 antigen [3]; gp63 in vitro 0.3): 135 pg/mL; IL-4 concentration (gp63 antigen [3]; gp63 in vitro 0.6): 83 pg/mL; γ IFN concentration (gp63 antigen [3]; gp63 in vitro 0.6): 120 pg/mL; 3H-TdR take-up (LmCPb antigen [4]; in vitro: Amastigotes 1.9 × 10^−6/ml): 44 ± 7 cpm × 10^−3/ml; 3H-TdR take-up (LmCPb antigen [4]; in vitro: Amastigotes 6 × 10^−6/ml): 79 ± 6 cpm × 10^−3/ml; 3H-TdR take-up (LmCPb antigen [4]; in vitro: Amastigotes 17 × 10^−6/ml): 119 ± 4 cpm × 10^−3/ml; 3H-TdR take-up (LmCPb antigen [4]; in vitro: Con A 5 μg/ml): 196 ± 10 cpm × 10^−3/ml; 3H-TdR take-up (LmCPb antigen [4]; in vitro: LmCPb 0.6 μg/ml): 19 ± 4 cpm × 10^−3/ml; 3H-TdR take-up (LmCPb antigen [4]; in vitro: LmCPb 1.7 μg/ml): 40 ± 4 cpm × 10^−3/ml; 3H-TdR take-up (LmCPb antigen [4]; in vitro: LmCPb 5 μg/ml): 80 ± 5 cpm × 10^−3/ml; 3H-TdR take-up (LmCPb antigen [4]; in vitro: LmCPb 15 μg/ml): 140 ± 10 cpm × 10^−3/ml; 3H-TdR take-up (LmCPb antigen [4]; in vitro: No stimulant): 11 ± 2 cpm × 10^−3/ml; γ IFN production (LmCPb antigen [5]; in vitro: Amastigotes): 320 pg/mL; IL-4 production (LmCPb antigen [5]; in vitro: Amastigotes 17 × 10^−5/ml): 65 pg/mL; IL-4 production (LmCPb antigen [5]; in vitro: Con A 5 μg/ml): 360 pg/mL; γ IFN production (LmCPb antigen [5]; in vitro: Con A 5 μg/ml): >1800 pg/mL; IL-4 production (LmCPb antigen [5]; in vitro: LmCPb 15 μg/ml): 130 pg/mL; γ IFN production (LmCPb antigen [5]; in vitro: LmCPb 15 μg/ml): 480 pg/mL; IL-4 production (LmCPb antigen [5]; in vitro: No challenge): <8 pg/mL; γ IFN production (LmCPb antigen [5]; in vitro: No stimulant): 25 pg/mL; IL-12 p70 production in monocytes and DC-6 cells (monocytes and DC-6 cells): induced in presence of γ IFN; differenciation of DC-6 into DC-9 cells (dose vs. response of FITC-Dextran incorporation) [6]: outstanding capacity to induce differenciation of DC-6 into DC-9 cells; CD40 expression, % of mean fluorescence based on LPS-induced expression ([7]; FIG. 6): 39%; CD86 expression, % of mean fluorescence based on LPS-induced expression ([7]; FIG. 7): 77%; CD83 expression, % of mean fluorescence based on LPS-induced expression ([7]; FIG. 8): 60%; CD80 expression, % of mean fluorescence based on LPS-induced expression ([7]; FIG. 9): 62%
